# Experimental data reported in US20090131354A1, “miR-126 REGULATED GENES AND PATHWAYS AS TARGETS FOR THERAPEUTIC INTERVENTION” (priority 2007, published 2009).
# Assays:
# [1] = test system: prostate cancer cells PPC-1, Du145, LNCaP and RWPE2; experiment: Alamar Blue proliferation assay, all prostate cancer cell lines tested; type: cell-based, human
# Source text: The inventors assessed the therapeutic effect of hsa-miR-126 for prostate cancer by using 4 individual human prostate cancer cell lines. To measure cellular proliferation of prostate cancer cells, the following prostate cancer cell lines were used: PPC-1, derived from a bone metastasis; Du145, derived from a brain metastasis; RWPE2, derived from prostate cells immortalized by human papillomavirus 18 and transformed by the K-RAS oncogene; and LNCaP, derived from a lymph node metastasis (Stone et al., 1978; Horoszewicz et al., 1980; Brothman et al., 1991; Pretlow et al., 1993; Bello et al., 1997). PPC-1 and Du145 cells lack expression of the prostate-specific antigen (PSA) and are independent of androgen receptor (AR) signaling. In contrast, RWPE2 and LNCaP cells test positive for PSA and AR. Cells were transfected with synthetic hsa-miR-126 (Pre-miR™-hsa-miR-126, Ambion cat. no. AM 17100) or negative control miRNA (NC; Pre-miR™ microRNA Precursor Molecule-Negative Control #2; Ambion cat. no. AM17111) in a 96-well format using a lipid-based transfection reagent. […] Proliferation was assessed 4-7 days post-transfection using Alamar Blue™ (Invitrogen) following the manufacturer's instructions. […] Fluorescent light units (FLU) were measured after 3 hours, normalized to the control, and plotted as percent change in proliferation. […]
# [2] = test system: Du145 prostate cancer cells; experiment: Long-term growth curve with repeated electroporation, Du145; type: cell-based, human
# Source text: To evaluate the therapeutic activity of hsa-miR-126 over an extended period of time, we conducted growth curve experiments in the presence of miRNA for up to 21 days. Since in vitro transfections of naked interfering RNAs, such as synthetic miRNA, are transient by nature and compromised by the dilution of the oligonucleotide during ongoing cell divisions, we administered miRNA at multiple time points (Bartlett and Davis, 2006; Bartlett and Davis, 2007). To accommodate miRNA delivery into a large quantity of cells, we employed the electroporation method to delivery hsa-miR-126 or negative control miRNA into PPC-1, PC3 and Du145 human prostate cancer cells. Briefly, 1×10^6 PPC-1 or PC3 cells, and 0.5×10^6 Du145 cells were electroporated with 1.6 μM hsa-miR-126 or negative control using the BioRad Gene Pulser Xcell™ instrument (BioRad Laboratories Inc., Hercules, Calif., USA), seeded and propagated in regular growth medium. Experiments with PC3 and Du145 cells were carried out in triplicates. When the control cells reached confluence (days 4 and 11 for PPC-1; days 7 and 14 for PC3 and Du145), cells were harvested, counted and electroporated again with the respective miRNAs. […] The population doubling was calculated from these electroporation events using the formula PD=ln(Nf/N0)/ln2, and cell counts were extrapolated and plotted on a linear scale (FIGS. 10-12). […]
# [3] = test system: A549 cells; experiment: Ingenuity Pathways Analysis of affected cellular pathways; parameters: species or system human
# Procedure: The mis-regulation of gene expression by hsa-miR-126 (Table 1) affects many cellular pathways that represent potential therapeutic targets for the control of cancer and other diseases and disorders. The inventors determined the identity and nature of the cellular genetic pathways affected by the regulatory cascade induced by hsa-miR-126 expression. Cellular pathway analyses were performed using Ingenuity Pathways Analysis (Version 4.0, Ingenuity® Systems, Redwood City, Calif.). Alteration of a given pathway was determined by Fisher's Exact test (Fisher, 1922).
substance,measurement,setting,value
"hsa-miR-126 (UCGUACCGUGAGUAAUAAUGC; synthetic pre-miR form, further chemistry not given here) [Synthetic hsa-miR-126 (Pre-miR™-hsa-miR-126, Ambion cat. no. AM17100)]",average inhibition of cellular proliferation,"[1]; average of PPC-1, Du145, LNCaP, RWPE2, 30 nM",23.07%
same,growth-inhibitory activity compared with siEg5,"[1]; prostate cancer cell lines, 30 nM",comparable to that of Eg5-directed siRNA
same,inhibition of cell growth,"[2]; Du145, day 20, 1.6 μM repeated electroporation, relative to control cells (100%)",83.9%
same,remaining cells,"[2]; Du145, day 20, relative to control cells (100%)",16.1%
same,Number of Genes,"[3]; pathway: Cancer, Cellular Movement, Tumor Morphology",23
same,Number of Genes,"[3]; pathway: Carbohydrate Metabolism, Connective Tissue Disorders, Inflammatory Disease",15
same,Number of Genes,"[3]; pathway: Cell Cycle, Connective Tissue Development and Function, Immune Response",1
same,Number of Genes,"[3]; pathway: Cell Cycle, Lipid Metabolism, Molecular Transport",15
same,Number of Genes,"[3]; pathway: Cell Death, Cell-To-Cell Signaling and Interaction, Cellular Assembly and Organization",1
same,Number of Genes,"[3]; pathway: Cell Morphology, Cellular Assembly and Organization, Cellular Development",15
same,Number of Genes,"[3]; pathway: Cell Signaling, Molecular Transport, Neurological Disease",1
same,Number of Genes,"[3]; pathway: Cell-To-Cell Signaling and Interaction, Immune Response, Immune and Lymphatic System Development and Function",13
same,Number of Genes,"[3]; pathway: Cellular Assembly and Organization, Cancer, Skeletal and Muscular Disorders",16
same,Number of Genes,"[3]; pathway: Cellular Function and Maintenance, Cellular Assembly and Organization, Cell Cycle",11
same,Number of Genes,"[3]; pathway: Cellular Growth and Proliferation, Skeletal and Muscular System Development and Function, Cancer",16
same,Number of Genes,"[3]; pathway: Cellular Movement, Cellular Assembly and Organization, Drug Metabolism",16
same,Number of Genes,"[3]; pathway: Developmental Disorder, Endocrine System Disorders, Lipid Metabolism",1
same,Number of Genes,"[3]; pathway: Immune Response, Cellular Assembly and Organization, Gene Expression",1
same,Number of Genes,"[3]; pathway: Molecular Transport, Protein Trafficking, Cell-To-Cell Signaling and Interaction",1
